Measured values reported in ChEMBL document CHEMBL5214910, “Rational Design of Dipicolylamine-Containing Carbazole Amphiphiles Combined with Zn2+ as Potent Broad-Spectrum Antibacterial Agents with a Membrane-Disruptive Mechanism” (J Med Chem, 2021).
Converted amounts (≈) assume the structure as drawn. The source made the active and inactive calls. The rule behind the calls is not given here.

Tests used:
Staphylococcus aureus [1] = experiment: Antibacterial activity against Staphylococcus aureus ATCC 29213 assessed as inhibition of bacterial growth incubated for 24 hrs by Muller hinton broth based dilution assay; format: functional
Staphylococcus aureus [2] = experiment: Antibacterial activity against Methicillin-resistant Staphylococcus aureus N315 assessed as inhibition of bacterial growth incubated for 24 hrs by Muller hinton broth based dilution assay; format: functional
Staphylococcus aureus [3] = experiment: Antibacterial activity against Methicillin-resistant Staphylococcus aureus NCTC10442 assessed as inhibition of bacterial growth incubated for 24 hrs by Muller hinton broth based dilution assay; format: functional
Escherichia coli [4] = experiment: Antibacterial activity Escherichia coli ATCC 25922 assessed as inhibition of bacterial growth incubated for 24 hrs by Muller hinton broth based dilution assay; format: functional
Pseudomonas aeruginosa [5] = experiment: Antibacterial activity Pseudomonas aeruginosa ATCC 9027 assessed as inhibition of bacterial growth incubated for 24 hrs by Muller hinton broth based dilution assay; format: functional
Pseudomonas aeruginosa [6] = experiment: Antibacterial activity Pseudomonas aeruginosa ATCC 9027 assessed as inhibition of bacterial growth incubated for 24 hrs in the presence of 12.5 ug/mL Zn2+ by Muller hinton broth based dilution assay; format: functional
[7] = Hemolytic activity in rabbit RBC incubated for 1 hrs in the presence of 12.5 ug/mL Zn2+ by fluorescence based microplate reader assay; format: toxicity, cell-based, Oryctolagus cuniculus, Erythrocyte; conditions: rabbit red blood cells (erythrocytes)
Escherichia coli [8] = experiment: Antibacterial activity Escherichia coli ATCC 25922 assessed as inhibition of bacterial growth incubated for 24 hrs in the presence of 25 ug/mL Zn2+ by Muller hinton broth based dilution assay; format: functional
Escherichia coli [9] = experiment: Antibacterial activity Escherichia coli ATCC 25922 assessed as inhibition of bacterial growth incubated for 24 hrs in the presence of 6.25 ug/mL Zn2+ by Muller hinton broth based dilution assay; format: functional
Escherichia coli [10] = experiment: Antibacterial activity Escherichia coli ATCC 25922 assessed as inhibition of bacterial growth incubated for 24 hrs in the presence of 0.78 ug/mL Zn2+ by Muller hinton broth based dilution assay; format: functional
Escherichia coli [11] = experiment: Antibacterial activity Escherichia coli ATCC 25922 assessed as inhibition of bacterial growth incubated for 24 hrs in the presence of 0.39 ug/mL Zn2+ by Muller hinton broth based dilution assay; format: functional
Pseudomonas aeruginosa [12] = experiment: Antibacterial activity Pseudomonas aeruginosa ATCC 9027 assessed as inhibition of bacterial growth incubated for 24 hrs in the presence of 25 ug/mL Zn2+ by Muller hinton broth based dilution assay; format: functional
Pseudomonas aeruginosa [13] = experiment: Antibacterial activity Pseudomonas aeruginosa ATCC 9027 assessed as inhibition of bacterial growth incubated for 24 hrs in the presence of […] ug/mL Zn2+ by Muller hinton broth based dilution assay; format: functional
Staphylococcus aureus [14] = experiment: Antibacterial activity against Methicillin-resistant Staphylococcus aureus NCTC10442 assessed as inhibition of bacterial growth incubated for 24 hrs in the presence of 50 ug/mL Zn2+ by Muller hinton broth based dilution assay; format: functional
Staphylococcus aureus [15] = experiment: Antibacterial activity against Methicillin-resistant Staphylococcus aureus NCTC10442 assessed as inhibition of bacterial growth incubated for 24 hrs in the presence of 3.125 ug/mL Zn2+ by Muller hinton broth based dilution assay; format: functional
Staphylococcus aureus [16] = experiment: Antibacterial activity against Methicillin-resistant Staphylococcus aureus NCTC10442 assessed as inhibition of bacterial growth incubated for 24 hrs in the presence of 0.39 ug/mL Zn2+ by Muller hinton broth based dilution assay; format: functional
Staphylococcus aureus [17] = experiment: Antibacterial activity against Staphylococcus aureus ATCC 29213 assessed as inhibition of bacterial growth incubated for 24 hrs in the presence of 50 ug/mL Zn2+ by Muller hinton broth based dilution assay; format: functional
Staphylococcus aureus [18] = experiment: Antibacterial activity against Staphylococcus aureus ATCC 29213 assessed as inhibition of bacterial growth incubated for 24 hrs in the presence of 25 ug/mL Zn2+ by Muller hinton broth based dilution assay; format: functional
Staphylococcus aureus [19] = experiment: Antibacterial activity against Staphylococcus aureus ATCC 29213 assessed as inhibition of bacterial growth incubated for 24 hrs in the presence of 6.25 ug/mL Zn2+ by Muller hinton broth based dilution assay; format: functional
Staphylococcus aureus [20] = experiment: Antibacterial activity against Staphylococcus aureus ATCC 29213 assessed as inhibition of bacterial growth incubated for 24 hrs in the presence of 3.125 ug/mL Zn2+ by Muller hinton broth based dilution assay; format: functional
Staphylococcus aureus [21] = experiment: Antibacterial activity against Staphylococcus aureus ATCC 29213 assessed as inhibition of bacterial growth by measuring salt resistance incubated for 24 hrs in the presence of 12.5 ug/ml Zn2+ and 175.5 ug/ml K+ by Muller hinton broth based dilution assay; format: functional
Acinetobacter baumannii [22] = experiment: Antibacterial activity against Acinetobacter baumannii ATCC 17978 assessed as inhibition of bacterial growth by measuring salt resistance incubated for 24 hrs in the presence of 12.5 ug/ml Zn2+ and 175.5 ug/ml K+ by Muller hinton broth based dilution assay; format: functional
Acinetobacter baumannii [23] = experiment: Antibacterial activity against Acinetobacter baumannii ATCC 17978 assessed as inhibition of bacterial growth by measuring salt resistance incubated for 24 hrs in the presence of 12.5 ug/ml Zn2+ and 100 ug/ml […] by Muller hinton broth based dilution assay; format: functional
[24] = Ratio of MIC for antibacterial activity against Escherichia coli ATCC 25922 to MIC for antibacterial activity against Escherichia coli ATCC 25922 in the presence of Zn2+; format: functional
Escherichia coli [25] = experiment: Antibacterial activity against Escherichia coli ATCC 25922 assessed as log reduction in bacterial count at 8 times of MIC incubated for 30 mins in the presence of 12.5 ug/ml Zn2+ by Muller hinton agar based time kill assay; format: functional; conditions: 0.5 h
Cell membrane [26] = experiment: Induction of cell membrane […] in Staphylococcus aureus ATCC 29213 assessed as increase in fluorescence intensity at 2 times to 8 times of MIC measured for 1 hrs in the presence of 12.5 ug/ml Zn2+ by DiSC3 (5) dye based assay; format: subcellular
Cell membrane [27] = experiment: Disruption of cell membrane integrity in Staphylococcus aureus ATCC 29213 assessed as increase in red fluorescence at 8 times of MIC measured for 2 hrs in the presence of 12.5 ug/ml Zn2+ by PI and SYTO staining based assay
Cell membrane [28] = experiment: Induction of outer membrane permeabilization in Escherichia coli ATCC 25922 assessed as increase in fluorescence intensity at 2 times to 8 times MIC measured for 1 hrs in the presence of 12.5 ug/ml Zn2+ by NPN uptake assay; format: subcellular; conditions: DDE = dose-dependent effect
Lipopolysaccharide (LPS) [29] = experiment: Displacement of BODIPY-TR-cadaverin from Pseudomonas aeruginosa Lipopolysaccharide at 2 times of MIC incubated for 30 mins by fluorescence based microplate reader analysis relative to control
Lipopolysaccharide (LPS) [30] = experiment: Displacement of BODIPY-TR-cadaverin from Pseudomonas aeruginosa Lipopolysaccharide at 8 times of MIC incubated for 30 mins by fluorescence based microplate reader analysis relative to control
Lipopolysaccharide (LPS) [31] = experiment: Displacement of BODIPY-TR-cadaverin from Pseudomonas aeruginosa Lipopolysaccharide at 1 times of MIC incubated for 30 mins in the presence of 12.5 ug/ml Zn2+ by fluorescence based microplate reader analysis relative to control
Pseudomonas aeruginosa [32] = experiment: Antibacterial activity against Pseudomonas aeruginosa ATCC 9027 in C57BL/6 mouse model of bacterial keratitis assessed as log reduction in viable bacterial count in infected cornea at 0.5 % pre-infected with bacteria for 24 hrs followed by topical administration of compound four times a day for 3 days in the presence of 12.5 ug/ml of Zn2+; format: functional; conditions: route top, time 3 day

**Q.** Which MIC (Staphylococcus aureus [1]) does the source give for `CC(C)=CCn1c2ccccc2c2c(OCC(O)CN(Cc3ccccn3)Cc3ccccn3)cccc21` (configuration not stated) here?
**A.** 3.12 µg/mL (≈ 6.17 µM)

**Q.** And the MIC (Staphylococcus aureus [2])?
**A.** 1.56 µg/mL (≈ 3.08 µM)

**Q.** What about the MIC (Staphylococcus aureus [3]) of the same molecule?
**A.** 1.56 µg/mL (≈ 3.08 µM)

**Q.** What about the MIC (Escherichia coli [4]) of the same molecule?
**A.** 6.25 µg/mL (≈ 12.3 µM)

**Q.** What about the MIC (Pseudomonas aeruginosa [5]) of the same molecule?
**A.** > 50 µg/mL

**Q.** And the MIC (Pseudomonas aeruginosa [6])?
**A.** 3.12 µg/mL

**Q.** And the HC50 at 1 h [7]?
**A.** > 200 µg/mL

**Q.** What about the MIC (Escherichia coli [8]) of the same molecule?
**A.** 1.56 µg/mL

**Q.** And the MIC (Escherichia coli [9])?
**A.** 1.56 µg/mL

**Q.** What about the MIC (Escherichia coli [10]) of the same molecule?
**A.** 6.25 µg/mL

**Q.** And the MIC (Escherichia coli [11])?
**A.** 6.25 µg/mL

**Q.** And the MIC (Pseudomonas aeruginosa [12])?
**A.** 3.12 µg/mL

**Q.** What about the MIC (Pseudomonas aeruginosa [13]) of the same molecule?
**A.** 50 µg/mL

**Q.** And the MIC (Staphylococcus aureus [14])?
**A.** 0.78 µg/mL

**Q.** And the MIC (Staphylococcus aureus [15])?
**A.** 1.56 µg/mL

**Q.** What about the MIC (Staphylococcus aureus [16]) of the same molecule?
**A.** 1.56 µg/mL

**Q.** And the MIC (Staphylococcus aureus [17])?
**A.** 0.78 µg/mL

**Q.** And the MIC (Staphylococcus aureus [18])?
**A.** 1.56 µg/mL

**Q.** What about the MIC (Staphylococcus aureus [19]) of the same molecule?
**A.** 1.56 µg/mL

**Q.** And the MIC (Staphylococcus aureus [20])?
**A.** 3.12 µg/mL

**Q.** And the MIC (Staphylococcus aureus [21])?
**A.** 1.56 µg/mL

**Q.** And the MIC (Acinetobacter baumannii [22])?
**A.** 0.78 µg/mL

**Q.** What about the MIC (Acinetobacter baumannii [23]) of the same molecule?
**A.** 3.12 µg/mL

**Q.** And the Ratio [24]?
**A.** 2

**Q.** What about the “log(activity)” value (Escherichia coli [25]) of the same molecule?
**A.** 3.59

**Q.** What about the Activity (Cell membrane [26]) of the same molecule?
**A.** Active

**Q.** What about the Activity (Cell membrane [27]) of the same molecule?
**A.** Active

**Q.** And the Activity (Cell membrane [28])?
**A.** Dde

**Q.** And the Activity (Lipopolysaccharide (LPS) [29])?
**A.** 0.19%

**Q.** What about the Activity (Lipopolysaccharide (LPS) [30]) of the same molecule?
**A.** 1.32%

**Q.** And the Activity (Lipopolysaccharide (LPS) [31])?
**A.** 20.8%

**Q.** And the “log(activity)” value (Pseudomonas aeruginosa [32])?
**A.** 4.46
